Converted amounts (≈) assume the structure as drawn. *1 amine or outer side, *2 acyl side, *3 side chain or, on linkers, in order; H or OH if unused. Where a SMILES comes first, the peptide text is derived from it. [ ]: non-standard residue; d: D form. X1 = C[C@@H]([C@H](C)OC(=O)CC(C)(C)O)[C@@H](C(=O)[*:2])N(C)[*:1]; X5 = O=C([C@@H]1C[C@@]2(O)c3ccccc3N(O)[C@H]2N1[*:1])[*:2]; X6 = CC(=O)O[C@@H](C)[C@H](C)[C@@H](C(=O)[*:2])N(C)[*:1]; X3 = O=C([C@@H]1C[C@@]2(O)c3ccccc3N[C@H]2N1[*:1])[*:2]; X7 = CC(=O)O[C@@H](C(=O)[*:2])N(C)[*:1]; NMeVal(β-OH) = CN[C@H](C(=O)O)C(C)(C)O; X2 = CC(=O)O[C@H](C(=O)[*:2])N(C)[*:1]; NMeI = CC[C@H](C)[C@H](NC)C(=O)O; X4 = CN([C@H](O)C(=O)[*:2])[*:1]; NMeV = CN[C@H](C(=O)O)C(C)C; Sar = CNCC(=O)O
How the values were obtained:
Meloidogyne incognita = experiment: Nematicidal activity against Meloidogyne incognita; type: functional
[1] = Toxicity in ip dosed mouse; type: organism-based; conditions: in vivo
Staphylococcus aureus = experiment: Antibacterial activity against Staphylococcus aureus R-209 assessed as diameter of inhibition zone at 50 ug measured after 24 hrs by agar diffusion method; type: functional; conditions: R-209, 24 h, read-out: DIZ
[2] = system: Corynebacterium glutamicum; experiment: Antibacterial activity against Corynebacterium lilium assessed as diameter of inhibition zone at 50 ug measured after 24 hrs by agar diffusion method; type: functional; conditions: read-out: DIZ
Bacillus subtilis [3] = experiment: Antibacterial activity against Bacillus subtilis IAM 1609 assessed as diameter of inhibition zone at 50 ug measured after 24 hrs by agar diffusion method; type: functional; conditions: IAM 1609, 24 h, read-out: DIZ
Bacillus subtilis [4] = experiment: Antibacterial activity against Bacillus subtilis IFO-12732 assessed as diameter of inhibition zone at 50 ug measured after 24 hrs by agar diffusion method; type: functional; conditions: IFO-12732, 24 h, read-out: DIZ
[5] = system: Human immunodeficiency virus 1; experiment: Antiviral activity against HIV1 3B infected in human C8166 cells assessed as inhibition of virus-induced syncytia formation after 3 days; type: functional, organism-based; conditions: Human immunodeficiency virus 1, 3B, C8166, 72 h
[6] = Therapeutic Index, ratio of CC50 for human C8166 cells to EC50 for HIV1 3B infected in human C8166 cells; type: toxicity, cell-based; conditions: HIV-1 3B infected C8166 cells, read-out: Ratio CC50/EC50
[7] = system: Mycobacterium tuberculosis; experiment: Antimycobacterial activity against Mycobacterium tuberculosis H37Ra; type: functional
Mus musculus = experiment: Antithrombotic activity in ICR mouse assessed as inhibition of platelet aggregation at 20 mg/kg, po measured after 1 hr relative to control; type: functional

CC[C@H](C)[C@@H]1NC(=O)[C@H](C(C)C)N(C)C(=O)[C@@H]2C[C@@]3(O)c4ccccc4N[C@H]3N2C(=O)CN(C)C(=O)[C@H]([C@@H](C)CC)N(C)C(=O)[C@H](C(C)C)NC(=O)[C@@H](OC(C)=O)N(C)C(=O)[C@H]([C@@H](C)[C@H](C)OC(=O)CC(C)(C)O)N(C)C(=O)[C@H](C(C)(C)O)N(C)C(=O)CN(C)C(=O)[C@H](C(C)C)N(C)C(=O)[C@H](C(C)C)N(C)C1=O (cyclo(I[NMeV][NMeV][Sar][NMeVal(β-OH)][X1][X2]V[NMeI][Sar][X3][NMeV]))
LD90 (Meloidogyne incognita): 2 to 5 µg/mL

CC[C@H](C)[C@@H]1NC(=O)[C@H](C(C)C)N(C)C(=O)[C@@H]2C[C@@]3(O)c4ccccc4N(O)[C@H]3N2C(=O)CN(C)C(=O)[C@H]([C@@H](C)CC)N(C)C(=O)[C@H](C(C)C)NC(=O)CN(C)C(=O)[C@H]([C@@H](C)CC)N(C)C(=O)[C@H](C(C)(C)O)N(C)C(=O)CN(C)C(=O)[C@H](C(C)C)N(C)C(=O)[C@H](C(C)C)N(C)C1=O (HELM PEPTIDE1{I.[meV].[meV].[Sar].[CN([C@H](C(=O)[*:2])C(C)(C)O)[*:1]].[meI].[Sar].V.[meI].[Sar].[O=C([C@@H]1C[C@@]2(O)c3ccccc3N(O)[C@H]2N1[*:1])[*:2]].[meV]}$PEPTIDE1,PEPTIDE1,1:R1-12:R2$$$V2.0)
LD90 (Meloidogyne incognita): 2 to 5 µg/mL

CC[C@H](C)[C@@H]1NC(=O)CNC(=O)[C@@H]2Cc3c([nH]c4cc(O)ccc34)[S+]([O-])C[C@H](NC(=O)CNC1=O)C(=O)N[C@@H](CC(N)=O)C(=O)N1C[C@H](O)C[C@H]1C(=O)N[C@@H]([C@@H](C)[C@@H](O)CO)C(=O)N2 (some centres undefined)
LD50 [1]: 0.2 to 0.5 mg/kg

CC[C@H](C)[C@@H]1NC(=O)[C@H](C(C)C)N(C)C(=O)[C@@H]2C[C@@]3(O)c4ccccc4N(O)[C@H]3N2C(=O)CN(C)C(=O)[C@H]([C@@H](C)CC)N(C)C(=O)[C@H](C(C)C)NC(=O)[C@@H](OC(C)=O)N(C)C(=O)[C@H]([C@@H](C)[C@H](C)OC(=O)CC(C)(C)O)N(C)C(=O)[C@H](C(C)(C)O)N(C)C(=O)CN(C)C(=O)[C@H](C(C)C)N(C)C(=O)[C@H](C(C)C)N(C)C1=O (cyclo(I[NMeV][NMeV][Sar][NMeVal(β-OH)][X1][X2]V[NMeI][Sar][X5][NMeV]))
LD90 (Meloidogyne incognita): 2 to 5 µg/mL

CC[C@H](C)[C@@H]1NC(=O)[C@H](C(C)C)N(C)C(=O)[C@H](Cc2c[nH]c3ccccc23)NC(=O)CN(C)C(=O)[C@H]([C@@H](C)CC)N(C)C(=O)[C@H](C(C)C)NC(=O)CN(C)C(=O)[C@H]([C@@H](C)CC)N(C)C(=O)[C@H](C(C)C)N(C)C(=O)CN(C)C(=O)[C@H](C(C)C)N(C)C(=O)[C@H](C(C)C)N(C)C1=O (HELM PEPTIDE1{I.[meV].[meV].[Sar].[meV].[meI].[Sar].V.[meI].[Sar].W.[meV]}$PEPTIDE1,PEPTIDE1,1:R1-12:R2$$$V2.0)
LD90 (Meloidogyne incognita): 2 to 5 µg/mL

CC[C@@](C)(NC(=O)C(C)(C)NC(=O)[C@@H](NC(=O)[C@H](Cc1c[nH]c2ccccc12)NC(C)=O)C(C)C)C(=O)N[C@@H](C)C(=O)N[C@@H](CCC(N)=O)C(=O)N[C@@H](C)C(=O)NC(C)(C)C(=O)N[C@@H](CO)C(=O)NC(C)(C)C(=O)N[C@@H](C)C(=O)N[C@@H](CC(C)C)C(=O)NC(C)(C)C(=O)N[C@@H](CCC(N)=O)C(=O)N[C@H](CO)CC(C)C
zone of inhibition at 50 µg/disc (Staphylococcus aureus): 13 to 18 mm
zone of inhibition at 50 µg/disc [2]: 13 to 18 mm
zone of inhibition at 50 µg/disc (Bacillus subtilis [3]): 13 to 18 mm
zone of inhibition at 50 µg/disc (Bacillus subtilis [4]): 13 to 18 mm

O=C(O)c1cc2c([nH]c3ccccc32)c(-c2ccc(CO)o2)n1 [FLAZINE]
EC50 [5]: 2360 nM
selectivity ratio [6]: 12.1

CC[C@H](C)[C@@H]1NC(=O)[C@H](C(C)C)N(C)C(=O)[C@@H]2C[C@@]3(O)c4ccccc4N[C@H]3N2C(=O)CN(C)C(=O)[C@H]([C@@H](C)CC)N(C)C(=O)[C@H](C(C)C)NC(=O)[C@H](OC(C)=O)N(C)C(=O)[C@H]([C@@H](C)[C@H](C)OC(C)=O)N(C)C(=O)[C@H](C(C)(C)O)N(C)C(=O)CN(C)C(=O)[C@H](C(C)C)N(C)C(=O)[C@H](C(C)C)N(C)C1=O (cyclo(I[NMeV][NMeV][Sar][NMeVal(β-OH)][X6][X7]V[NMeI][Sar][X3][NMeV]))
LD90 (Meloidogyne incognita): 2 to 5 µg/mL

CC[C@H](C)[C@@H]1NC(=O)[C@H](C(C)C)N(C)C(=O)[C@@H]2C[C@@]3(O)c4ccccc4N[C@H]3N2C(=O)CN(C)C(=O)[C@H]([C@@H](C)CC)N(C)C(=O)[C@H](C(C)C)NC(=O)[C@@H](O)N(C)C(=O)[C@H]([C@@H](C)[C@H](C)OC(=O)CC(C)(C)O)N(C)C(=O)[C@H](C(C)(C)O)N(C)C(=O)CN(C)C(=O)[C@H](C(C)C)N(C)C(=O)[C@H](C(C)C)N(C)C1=O (cyclo(I[NMeV][NMeV][Sar][NMeVal(β-OH)][X1][X4]V[NMeI][Sar][X3][NMeV]))
LD90 (Meloidogyne incognita): 2 to 5 µg/mL

C=CC(C)(C)c1[nH]c2c(CC=C(C)C)cc(CC=C(C)C)cc2c1C[C@H]1NC(=O)[C@@H](C)NC1=O
MIC [7]: 170 µM (≈ 78.4 µg/mL)

CC[C@H](C)[C@@H]1NC(=O)[C@H](C(C)C)N(C)C(=O)[C@@H]2C[C@@]3(O)c4ccccc4N(O)[C@H]3N2C(=O)CN(C)C(=O)[C@H]([C@@H](C)CC)N(C)C(=O)[C@H](C(C)C)NC(=O)[C@@H](OC(C)=O)N(C)C(=O)[C@H]([C@@H](C)[C@H](C)OC(C)=O)N(C)C(=O)[C@H](C(C)(C)O)N(C)C(=O)CN(C)C(=O)[C@H](C(C)C)N(C)C(=O)[C@H](C(C)C)N(C)C1=O (cyclo(I[NMeV][NMeV][Sar][NMeVal(β-OH)][X6][X2]V[NMeI][Sar][X5][NMeV]))
LD90 (Meloidogyne incognita): 2 to 5 µg/mL

N[C@@H](Cc1c[nH]c2ccccc12)C(=O)NCC(=O)N[C@@H](CS)C(=O)O (H-Trp-Gly-Cys-OH)
inhibition in vivo at 20 mg/kg (Mus musculus): 83.3%

CC[C@H](C)[C@@H]1NC(=O)[C@H](C(C)C)N(C)C(=O)[C@@H]2C[C@@]3(O)c4ccccc4N[C@H]3N2C(=O)CN(C)C(=O)[C@H]([C@@H](C)CC)N(C)C(=O)[C@H](C(C)C)NC(=O)CN(C)C(=O)[C@H]([C@@H](C)CC)N(C)C(=O)[C@H](C(C)(C)O)N(C)C(=O)CN(C)C(=O)[C@H](C(C)C)N(C)C(=O)[C@H](C(C)C)N(C)C1=O (HELM PEPTIDE1{I.[meV].[meV].[Sar].[CN([C@H](C(=O)[*:2])C(C)(C)O)[*:1]].[meI].[Sar].V.[meI].[Sar].[O=C([C@@H]1C[C@@]2(O)c3ccccc3N[C@H]2N1[*:1])[*:2]].[meV]}$PEPTIDE1,PEPTIDE1,1:R1-12:R2$$$V2.0)
LD90 (Meloidogyne incognita): 2 to 5 µg/mL

CC[C@H](C)[C@@H]1NC(=O)CNC(=O)[C@@H]2Cc3c([nH]c4cc(O)ccc34)[S+]([O-])C[C@H](NC(=O)CNC1=O)C(=O)N[C@@H](CC(=O)O)C(=O)N1C[C@H](O)C[C@H]1C(=O)N[C@@H]([C@@H](C)[C@@H](O)CO)C(=O)N2 (some centres undefined)
LD50 [1]: 0.2 to 0.5 mg/kg

CC[C@H](C)[C@@H]1NC(=O)[C@H](C(C)C)N(C)C(=O)[C@@H]2C[C@@]3(O)c4ccccc4N(O)[C@H]3N2C(=O)CN(C)C(=O)[C@H]([C@@H](C)CC)N(C)C(=O)[C@H](C(C)C)NC(=O)[C@@H](O)N(C)C(=O)[C@H]([C@@H](C)CC)N(C)C(=O)[C@H](C(C)(C)O)N(C)C(=O)CN(C)C(=O)[C@H](C(C)C)N(C)C(=O)[C@H](C(C)C)N(C)C1=O (cyclo(I[NMeV][NMeV][Sar][NMeVal(β-OH)][NMeI][X4]V[NMeI][Sar][X5][NMeV]))
LD90 (Meloidogyne incognita): 2 to 5 µg/mL

CC[C@H](C)[C@@H]1NC(=O)CNC(=O)[C@@H]2Cc3c([nH]c4cc(O)ccc34)[S+]([O-])C[C@H](NC(=O)CNC1=O)C(=O)N[C@@H](CC(N)=O)C(=O)N1C[C@H](O)C[C@H]1C(=O)N[C@@H]([C@@H](C)[C@H](C)O)C(=O)N2 (some centres undefined)
LD50 [1]: 0.2 to 0.5 mg/kg

CC(=O)N[C@@H](Cc1c[nH]c2ccccc12)C(=O)N[C@H](C(=O)NC(C)(C)C(=O)NC(C)(C)C(=O)N[C@@H](C)C(=O)N[C@@H](CCC(N)=O)C(=O)N[C@@H](C)C(=O)NC(C)(C)C(=O)N[C@@H](CO)C(=O)NC(C)(C)C(=O)N[C@@H](C)C(=O)N[C@@H](CC(C)C)C(=O)NC(C)(C)C(=O)N[C@@H](CCC(N)=O)C(=O)N[C@H](CO)CC(C)C)C(C)C (HELM PEPTIDE1{[ac].W.V.[Aib].[Aib].A.Q.A.[Aib].S.[Aib].A.L.[Aib].Q.[CC(C)C[C@@H](CO)N[*:1]]}$$$$V2.0)
zone of inhibition at 50 µg/disc (Staphylococcus aureus): 13 to 18 mm
zone of inhibition at 50 µg/disc [2]: 13 to 18 mm
zone of inhibition at 50 µg/disc (Bacillus subtilis [3]): 13 to 18 mm
zone of inhibition at 50 µg/disc (Bacillus subtilis [4]): 13 to 18 mm

— ChEMBL document CHEMBL4190273, “Mushroom-Derived Indole Alkaloids” (J Nat Prod, 2017)
